Reference: patent publication US7772183B2 (Bristol-Myers Squibb Company, priority 2005, dated 2010)
pEC50, pIC50: −log10 of the molar value.

What was measured:
[1] = biological target: T1, HCV NS3/4A protease complex, BMS strain (UniProt P27958, species not given/STRAIN_BMS); test: FRET peptide assay to monitor HCV NS3/4A proteolytic activity (BMS strain); type: biochemical, Hepatitis C virus (genotype 1a); settings: NS3/4A BMS strain; read-out: IC50 Range
T1 construct: said of H77 and J4L6S; fused on or other part: A three-lysine solubilising tail at the C-terminus of NS4A and a His tag (pET21b, Ni-NTA purification)
T1 sequence (P27958 1027-1657, change not shown, one chain of several): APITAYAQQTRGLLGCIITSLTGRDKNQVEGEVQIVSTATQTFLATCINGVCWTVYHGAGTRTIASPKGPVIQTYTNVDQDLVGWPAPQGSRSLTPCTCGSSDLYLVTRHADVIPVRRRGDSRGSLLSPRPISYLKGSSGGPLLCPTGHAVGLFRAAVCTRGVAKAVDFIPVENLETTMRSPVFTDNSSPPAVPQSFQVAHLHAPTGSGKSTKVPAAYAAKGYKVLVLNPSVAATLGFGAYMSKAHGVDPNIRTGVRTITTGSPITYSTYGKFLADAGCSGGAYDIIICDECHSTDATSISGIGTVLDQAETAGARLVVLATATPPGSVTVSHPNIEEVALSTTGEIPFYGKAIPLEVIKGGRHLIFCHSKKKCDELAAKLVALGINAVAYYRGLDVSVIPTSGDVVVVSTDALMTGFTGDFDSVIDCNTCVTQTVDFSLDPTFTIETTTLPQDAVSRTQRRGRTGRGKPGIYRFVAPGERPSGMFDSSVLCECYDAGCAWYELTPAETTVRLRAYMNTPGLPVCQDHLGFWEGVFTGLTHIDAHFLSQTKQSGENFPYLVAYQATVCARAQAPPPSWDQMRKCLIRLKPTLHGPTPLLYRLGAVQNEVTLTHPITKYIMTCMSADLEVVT
Text: HCV NS3 protease complexes, derived from the BMS strain, H77 strain or J4L6S strain, were generated, as described below. These purified recombinant proteins were generated for use in a homogeneous assay (see below) to provide an indication of how effective compounds of the present disclosure would be in inhibiting HCV NS3 proteolytic activity.
Serum from an HCV-infected patient was obtained from Dr. T. Wright, San Francisco Hospital. An engineered full-length cDNA (compliment deoxyribonucleic acid) template of the HCV genome (BMS strain) was constructed from DNA fragments obtained by reverse transcription-PCR (RT-PCR) of serum RNA (ribonucleic acid) and using primers selected on the basis of homology between other genotype 1a strains. From the determination of the entire genome sequence, a genotype 1a was assigned to the HCV isolate according to the classification of Simmonds et al. (See P Simmonds, K A Rose, S Graham, S W Chan, F McOmish, B C Dow, E A Follett, P L Yap and H Marsden, J. Clin. Microbiol., 31(6), 1493-1503 (1993)). […] The infectious clones, H77 (1a genotype) and J4L6S (1b genotype) were obtained from R. Purcell (NIH) and the sequences are published in Genbank (AAB67036, see Yanagi, M., Purcell, R. H., Emerson, S. U. and Bukh, J. Proc. Natl. Acad. Sci. U.S.A. 94(16), 8738-8743 (1997); AF054247, see Yanagi, M., St Claire, M., Shapiro, M., Emerson, S. U., Purcell, R. H. and Bukh, J, Virology 244 (1), 161-172. (1998)).
The H77 and J4L6S strains were used for production of recombinant NS3/4A protease complexes. DNA encoding the recombinant HCV NS3/4A protease complex (amino acids 1027 to 1711) for these strains were manipulated as described by P. Gallinari et al. (see Gallinari P, Paolini C, Brennan D, Nardi C, Steinkuhler C, De Francesco R. Biochemistry. 38(17):5620-32, (1999)). Briefly, a three-lysine solubilizing tail was added at the 3′-end of the NS4A coding region. The cysteine in the P1 position of the NS4A-NS4B cleavage site (amino acid 1711) was changed to a glycine to avoid the proteolytic cleavage of the lysine tag. Furthermore, a cysteine to serine mutation was introduced by PCR at amino acid position 1454 to prevent the autolytic cleavage in the NS3 helicase domain. The variant DNA fragment was cloned in the pET21b bacterial expression vector (Novagen) and the NS3/4A complex was expressed in Escherichia coli strain BL21 (DE3) (Invitrogen) following the protocol described by P. Gallinari et al. (see Gallinari P, Brennan D, Nardi C, Brunetti M, Tomei L, Steinkuhler C, De Francesco R., J Virol. 72(8):6758-69 (1998)) with modifications. Briefly, the NS3/4A protease complex expression was induced with 0.5 mM Isopropyl β-D-1-thiogalactopyranoside (IPTG) for 22 hours (h) at 20° C. A typical fermentation (1 Liter (L)) yielded approximately 10 grams (g) of wet cell paste. The cells were resuspended in lysis buffer (10 mL/g) consisting of 25 mM N-(2-Hydroxyethyl)Piperazine-N′-(2-Ethane Sulfonic acid) (HEPES), pH 7.5, 20% glycerol, 500 mM Sodium Chloride (NaCl), 0.5% Triton X-100, 1 microgram/milliliter (“μg/mL”) lysozyme, 5 mM Magnesium Chloride (MgCl2), 1 μg/ml Dnasel, 5 mM β-Mercaptoethanol (βME), Protease inhibitor-Ethylenediamine Tetraacetic acid (EDTA) free (Roche), homogenized and incubated for 20 minutes (min) at 4° C. The homogenate was sonicated and clarified by ultra-centrifugation at 235000 g for 1 h at 4° C. Imidazole was added to the supernatant to a final concentration of 15 mM and the pH adjusted to 8.0. The crude protein extract was loaded on a Nickel-Nitrilotriacetic acid (Ni-NTA) column pre-equilibrated with buffer B (25 mM HEPES, pH 8.0, 20% glycerol, 500 mM NaCl, 0.5% Triton X-100, 15 mM imidazole, 5 mM βME). The sample was loaded at a flow rate of 1 mL/min. The column was washed with 15 column volumes of buffer C (same as buffer B except with 0.2% Triton X-100). The protein was eluted with 5 column volumes of buffer D (same as buffer C except with 200 mM Imidazole). […]

[2] = tested on: HCV replicon in HUH-7 cells; test: HCV replicon FRET assay; type: cell-based, Hepatitis C virus (strain 1b); settings: Hepatitis C virus, Huh-7; HCV replicon, for compounds tested; read-out: EC50 Range
Text: An HCV replicon whole cell system was established as described by Lohmann V, Komer F, Koch J, Herian U, Theilmann L, Bartenschlager R., Science 285(5424):110-3 (1999). This system enabled us to evaluate the effects of our HCV Protease compounds on HCV RNA replication. Briefly, using the HCV strain 1b sequence described in the Lohmann paper (Assession number: AJ238799), an HCV cDNA was synthesized by Operon Technologies, Inc. (Alameda, Calif.), and the full-length replicon was then assembled in plasmid pGem9zf(+) (Promega, Madison, Wis.) using standard molecular biology techniques. The replicon consists of (i) the HCV 5′ UTR fused to the first 12 amino acids of the capsid protein, (ii) the neomycin phosphotransferase gene (neo), (iii) the IRES from encephalomyocarditis virus (EMCV), and (iv) HCV NS3 to NS5B genes and the HCV 3′ UTR. Plasmid DNAs were linearized with Scal and RNA transcripts were synthesized in vitro using the T7 MegaScript transcription kit (Ambion, Austin, Tex.) according to manufacturer's directions. In vitro transcripts of the cDNA were transfected into the human hepatoma cell line, HUH-7. […] Resulting cell lines were characterized for positive and negative strand RNA production and protein production over time.
The HCV replicon FRET assay was developed to monitor the inhibitory effects of compounds described in the disclosure on HCV viral replication. HUH-7 cells, constitutively expressing the HCV replicon, were grown in Dulbecco's Modified Eagle Media (DMEM) (Gibco-BRL) containing 10% Fetal calf serum (FCS) (Sigma) and 1 mg/ml G418 (Gibco-BRL). Cells were seeded the night before (1.5×10^4 cells/well) in 96-well tissue-culture sterile plates. Compound and no compound controls were prepared in DMEM containing 4% FCS, 1:100 Penicillin/Streptomysin (Gibco-BRL), 1:100 L-glutamine and 5% DMSO in the dilution plate (0.5% DMSO final concentration in the assay). Compound/DMSO mixes were added to the cells and incubated for 4 days at 37° C. After 4 days, cells were first assessed for cytotoxicity using alamar Blue (Trek Diagnotstic Systems) for a CC50 reading. The toxicity of compound (CC50) was determined by adding 1/10th volume of alamar Blue to the media incubating the cells. After 4 hours, the fluorescence signal from each well was read, with an excitation wavelength at 530 nm and an emission wavelength of 580 nm, using the Cytofluor Series 4000 (Perspective Biosystems). Plates were then rinsed thoroughly with Phosphate-Buffered Saline (PBS) (3 times 150 μl). The cells were lysed with 25 μl of a lysis assay reagent containing an HCV protease substrate (5× cell Luciferase cell culture lysis reagent (Promega #E153A) diluted to 1× with distilled water, NaCl added to 150 mM final, the FRET peptide substrate (as described for the enzyme assay above) diluted to 10 μM final from a 2 mM stock in 100% DMSO. […]. The plate was then placed into the Cytofluor 4000 instrument which had been set to 340 nm excitation/490 nm emission, automatic mode for 21 cycles and the plate read in a kinetic mode. EC50 determinations were carried out as described for the IC50 determinations.

Structure (SMILES)	pIC50 [1]	pEC50 [2]	melting point [°C]
CC(C)(C)OC(=O)N[C@H]1CCCCC/C=C\[C@@H]2C[C@@]2(C(=O)NS(=O)(=O)C2CC2)NC(=O)[C@@H]2C[C@@H](OC(=O)c3cc4ccccc4o3)CN2C1=O	> 7.00	> 7.00	
CN(C)S(=O)(=O)NC(=O)[C@@]12C[C@H]1/C=C\CCCCC[C@H](NC(=O)OC(C)(C)C)C(=O)N1C[C@H](OC(=O)c3ccc4c(c3)OCCO4)C[C@H]1C(=O)N2	> 7.00	> 7.00	
CC(C)(C)OC(=O)N[C@H]1CCCCC/C=C\[C@@H]2C[C@@]2(C(=O)NS(=O)(=O)C2CC2)NC(=O)[C@@H]2C[C@@H](OC(=O)c3cccc(F)c3)CN2C1=O	> 7.00	> 7.00	
Cc1onc(-c2ccccc2)c1C(=O)O[C@@H]1C[C@H]2C(=O)N[C@]3(C(=O)NS(=O)(=O)C4CC4)C[C@H]3/C=C\CCCCC[C@H](NC(=O)OC(C)(C)C)C(=O)N2C1	> 7.00	> 7.00	
CCC(C(=O)O[C@@H]1C[C@H]2C(=O)N[C@]3(C(=O)NS(=O)(=O)C4CC4)C[C@H]3/C=C\COCCC[C@H](NC(=O)OC(C)(C)C)C(=O)N2C1)c1ccccc1 (mixture of isomers) [Compound 5, 18-(2-phenylbutyryloxy)-14-tert-butoxycarbonylamino-4-cyclopropylsulfonylaminocarbonyl-2,15-dioxo-3,16-diaza-10-oxatricyclo-[14.3.0.0^4,6]-nonadec-7-ene]	> 7.00	< 6.00	113 to 115
CC(C)(C)OC(=O)N[C@H]1CCCOC/C=C\[C@@H]2C[C@@]2(C(=O)NS(=O)(=O)C2CC2)NC(=O)[C@@H]2C[C@@H](OC(=O)c3ccccc3)CN2C1=O [Compound 1, 18-benzoyloxy-14-tert-butoxycarbonylamino-4-cyclopropylsulfonylaminocarbonyl-2,15-dioxo-3,16-diaza-10-oxatricyclo[14.3.0.0^4,6]nonadec-7-ene]	> 7.00	6.00 to 7.00	153 to 155
CC(C)(C)OC(=O)N[C@H]1COCCC/C=C\[C@@H]2C[C@@]2(C(=O)NS(=O)(=O)C2CC2)NC(=O)[C@@H]2C[C@@H](OC(=O)Nc3ccc(-c4ccccc4)cc3)CN2C1=O [Compound 39, 18-(4-biphenylaminocarbonyloxy)-14-tert-butoxycarbonylamino-4-cyclopropylsulfonylaminocarbonyl-2,15-dioxo-3,16-diaza-12-oxatricyclo-[14.3.0.0^4,6]-nonadec-7-ene]	< 6.00		170 to 173
CC(C)(C)OC(=O)N[C@H]1COCCC/C=C\[C@@H]2C[C@@]2(C(=O)NS(=O)(=O)C2CC2)NC(=O)[C@@H]2C[C@@H](OC(=O)N3Cc4cccc(F)c4C3)CN2C1=O [Compound 46, 18-(2-[4-fluoroisoindoline]carbonyloxy)-14-tert-butoxycarbonylamino-4-cyclopropylsulfonylaminocarbonyl-2,15-dioxo-3,16-diaza-12-oxatricyclo-[14.3.0.0^4,6]-nonadec-7-ene]	> 7.00	> 7.00	
CC(C)(C)OC(=O)N[C@H]1CCCCC/C=C\[C@@H]2C[C@@]2(C(=O)O)NC(=O)[C@@H]2C[C@@H](OC(=O)Nc3ccccc3-c3ccccc3)CN2C1=O [Compound 47]	< 6.00		
CC(C)(C)OC(=O)N[C@H]1CCCCC/C=C\[C@@H]2C[C@@]2(C(=O)NS(=O)(=O)C2CC2)NC(=O)[C@@H]2C[C@@H](OC(=O)Nc3ccccc3-c3ccccc3)CN2C1=O [Compound 48]	> 7.00	> 7.00	
CC(C)(C)OC(=O)N[C@H]1CN(C2CC2)CCC/C=C\[C@@H]2C[C@@]2(C(=O)NS(=O)(=O)C2CC2)NC(=O)[C@@H]2C[C@@H](OC(=O)c3ccc4nccnc4c3)CN2C1=O [Compound 49]	> 7.00	> 7.00	
CC(C)(C)OC(=O)N[C@H]1CN(C2CC2)CCC/C=C\[C@@H]2C[C@@]2(C(=O)NS(=O)(=O)C2CC2)NC(=O)[C@@H]2C[C@@H](OC(=O)N3Cc4cccc(F)c4C3)CN2C1=O [Compound 50]	> 7.00	> 7.00	
